# PubChem BioAssay (NCI)
#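 Briefly, cells in 96-well plates were exposed to five compound concentrations for 48 h, and endpoints were estimated by linear interpolation. GI50 is the concentration that inhibits growth by half. TGI is the concentration that stops growth completely.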
# How the values were obtained:
# Assay in all cases: inhibition of tumour cell growth, NCI panel, 48 h
# 786-0 renal = tested on: 786-0 renal
# A498 renal = tested on: A498 renal
# A549 NSCLC = tested on: A549 NSCLC
# ACHN renal = tested on: ACHN renal
# BT-549 breast = tested on: BT-549 breast
# CAKI-1 renal = tested on: CAKI-1 renal
# CCRF-CEM leukemia = tested on: CCRF-CEM leukemia
# COLO 205 colon = tested on: COLO 205 colon
# DU-145 prostate = tested on: DU-145 prostate
# EKVX NSCLC = tested on: EKVX NSCLC
# HCC-2998 colon = tested on: HCC-2998 colon
# HCT-116 colon = tested on: HCT-116 colon
# HCT-15 colon = tested on: HCT-15 colon
# HL-60(TB) leukemia = tested on: HL-60(TB) leukemia
# HOP-62 NSCLC = tested on: HOP-62 NSCLC
# HOP-92 NSCLC = tested on: HOP-92 NSCLC
# HS 578T breast = tested on: HS 578T breast
# HT29 colon = tested on: HT29 colon
# IGROV1 ovarian = tested on: IGROV1 ovarian
# K-562 leukemia = tested on: K-562 leukemia
# KM12 colon = tested on: KM12 colon
# LOX IMVI melanoma = tested on: LOX IMVI melanoma
# M14 melanoma = tested on: M14 melanoma
# MALME-3M melanoma = tested on: MALME-3M melanoma
# MCF7 breast = tested on: MCF7 breast
# MDA-MB-231 breast = tested on: MDA-MB-231 breast
# MDA-MB-468 breast = tested on: MDA-MB-468 breast
# MOLT-4 leukemia = tested on: MOLT-4 leukemia
# NCI-H226 lung = tested on: NCI-H226 lung
# NCI-H23 lung = tested on: NCI-H23 lung
# NCI-H460 lung = tested on: NCI-H460 lung
# NCI-H522 lung = tested on: NCI-H522 lung
# OVCAR-3 ovarian = tested on: OVCAR-3 ovarian
# OVCAR-4 ovarian = tested on: OVCAR-4 ovarian
# OVCAR-5 ovarian = tested on: OVCAR-5 ovarian
# OVCAR-8 ovarian = tested on: OVCAR-8 ovarian
# PC-3 prostate = tested on: PC-3 prostate
# RPMI-8226 leukemia = tested on: RPMI-8226 leukemia
# RXF 393 renal = tested on: RXF 393 renal
# SF-268 CNS = tested on: SF-268 CNS
# SF-295 CNS = tested on: SF-295 CNS
# SF-539 CNS = tested on: SF-539 CNS
# SK-MEL-2 melanoma = tested on: SK-MEL-2 melanoma
# SK-MEL-28 melanoma = tested on: SK-MEL-28 melanoma
# SK-MEL-5 melanoma = tested on: SK-MEL-5 melanoma
# SK-OV-3 ovarian = tested on: SK-OV-3 ovarian
# SN12C renal = tested on: SN12C renal
# SNB-19 CNS = tested on: SNB-19 CNS
# SR leukemia = tested on: SR leukemia
# SW-620 colon = tested on: SW-620 colon
# T-47D breast = tested on: T-47D breast
# TK-10 renal = tested on: TK-10 renal
# U251 CNS = tested on: U251 CNS
# UACC-257 melanoma = tested on: UACC-257 melanoma
# UACC-62 melanoma = tested on: UACC-62 melanoma
# UO-31 renal = tested on: UO-31 renal
smiles,measurement,setting,value
COc1ccccc1Nc1nnc(-c2c[nH]c3ccccc23)o1,GI50,786-0 renal,5.07 µM
same,TGI,786-0 renal,22.7 µM
same,GI50,A498 renal,17.8 µM
same,TGI,A498 renal,53.9 µM
same,GI50,A549 NSCLC,2990 nM
same,TGI,A549 NSCLC,> 100 µM
same,GI50,ACHN renal,5.4 µM
same,TGI,ACHN renal,45.7 µM
same,GI50,BT-549 breast,3.07 µM
same,TGI,BT-549 breast,26 µM
same,GI50,CAKI-1 renal,861 nM
same,TGI,CAKI-1 renal,80 µM
same,GI50,CCRF-CEM leukemia,708 nM
same,TGI,CCRF-CEM leukemia,21 µM
same,GI50,COLO 205 colon,1010 nM
same,TGI,COLO 205 colon,11.2 µM
same,GI50,DU-145 prostate,4.26 µM
same,TGI,DU-145 prostate,> 100 µM
same,GI50,EKVX NSCLC,2630 nM
same,TGI,EKVX NSCLC,> 100 µM
same,GI50,HCC-2998 colon,2550 nM
same,TGI,HCC-2998 colon,16.2 µM
same,GI50,HCT-116 colon,5.38 µM
same,TGI,HCT-116 colon,54 µM
same,GI50,HCT-15 colon,451 nM
same,TGI,HCT-15 colon,21.8 µM
same,GI50,HL-60(TB) leukemia,625 nM
same,TGI,HL-60(TB) leukemia,10.2 µM
same,GI50,HOP-62 NSCLC,3.11 µM
same,TGI,HOP-62 NSCLC,40 µM
same,GI50,HOP-92 NSCLC,4.55 µM
same,TGI,HOP-92 NSCLC,40.6 µM
same,GI50,HS 578T breast,2200 nM
same,TGI,HS 578T breast,15.6 µM
same,GI50,HT29 colon,634 nM
same,TGI,HT29 colon,14.6 µM
same,GI50,IGROV1 ovarian,682 nM
same,TGI,IGROV1 ovarian,37.9 µM
same,GI50,K-562 leukemia,343 nM
same,TGI,K-562 leukemia,79.3 µM
same,GI50,KM12 colon,2330 nM
same,TGI,KM12 colon,16.5 µM
same,GI50,LOX IMVI melanoma,2210 nM
same,TGI,LOX IMVI melanoma,18.2 µM
same,GI50,M14 melanoma,982 nM
same,TGI,M14 melanoma,22.7 µM
same,GI50,MALME-3M melanoma,816 nM
same,TGI,MALME-3M melanoma,15 µM
same,GI50,MCF7 breast,614 nM
same,TGI,MCF7 breast,17.5 µM
same,GI50,MDA-MB-231 breast,2910 nM
same,TGI,MDA-MB-231 breast,24.6 µM
same,GI50,MDA-MB-468 breast,644 nM
same,TGI,MDA-MB-468 breast,3.37 µM
same,GI50,MOLT-4 leukemia,716 nM
same,TGI,MOLT-4 leukemia,14.4 µM
same,GI50,NCI-H226 lung,4.69 µM
same,TGI,NCI-H226 lung,> 100 µM
same,GI50,NCI-H23 lung,1890 nM
same,TGI,NCI-H23 lung,16.6 µM
same,GI50,NCI-H460 lung,1660 nM
same,TGI,NCI-H460 lung,12.8 µM
same,GI50,NCI-H522 lung,476 nM
same,TGI,NCI-H522 lung,3.68 µM
same,GI50,OVCAR-3 ovarian,1590 nM
same,TGI,OVCAR-3 ovarian,9.55 µM
same,GI50,OVCAR-4 ovarian,7.54 µM
same,TGI,OVCAR-4 ovarian,> 100 µM
same,GI50,OVCAR-5 ovarian,4.99 µM
same,TGI,OVCAR-5 ovarian,32.2 µM
same,GI50,OVCAR-8 ovarian,2870 nM
same,TGI,OVCAR-8 ovarian,26.2 µM
same,GI50,PC-3 prostate,2860 nM
same,TGI,PC-3 prostate,> 100 µM
same,GI50,RPMI-8226 leukemia,2250 nM
same,TGI,RPMI-8226 leukemia,16.9 µM
same,GI50,RXF 393 renal,2090 nM
same,TGI,RXF 393 renal,8.14 µM
same,GI50,SF-268 CNS,3.77 µM
same,TGI,SF-268 CNS,> 100 µM
same,GI50,SF-295 CNS,857 nM
same,TGI,SF-295 CNS,5.69 µM
same,GI50,SF-539 CNS,1630 nM
same,TGI,SF-539 CNS,4.76 µM
same,GI50,SK-MEL-2 melanoma,820 nM
same,TGI,SK-MEL-2 melanoma,2820 nM
same,GI50,SK-MEL-28 melanoma,4.48 µM
same,TGI,SK-MEL-28 melanoma,24 µM
same,GI50,SK-MEL-5 melanoma,2020 nM
same,TGI,SK-MEL-5 melanoma,5.81 µM
same,GI50,SK-OV-3 ovarian,1930 nM
same,TGI,SK-OV-3 ovarian,25.4 µM
same,GI50,SN12C renal,3.01 µM
same,TGI,SN12C renal,16.4 µM
same,GI50,SNB-19 CNS,3.14 µM
same,TGI,SNB-19 CNS,> 100 µM
same,GI50,SR leukemia,395 nM
same,TGI,SR leukemia,46.4 µM
same,GI50,SW-620 colon,598 nM
same,TGI,SW-620 colon,> 100 µM
same,GI50,T-47D breast,2870 nM
same,TGI,T-47D breast,25 µM
same,GI50,TK-10 renal,7.28 µM
same,TGI,TK-10 renal,> 100 µM
same,GI50,U251 CNS,2430 nM
same,TGI,U251 CNS,16.4 µM
same,GI50,UACC-257 melanoma,4.95 µM
same,TGI,UACC-257 melanoma,32.4 µM
same,GI50,UACC-62 melanoma,1390 nM
same,TGI,UACC-62 melanoma,14.5 µM
same,GI50,UO-31 renal,3.65 µM
same,TGI,UO-31 renal,55 µM
